# Data: paper PMC8345109, “Optimization of New Catalytic Topoisomerase II Inhibitors as an Anti-Cancer Therapy” (Cancers, 2021)
# Read-outs that look alike come from different tables or passages of the source.
# B1: 5ZRF DNA oligo (FAM) (dsDNA)
# DNA 1: AGCCGAGCTGCAGCTCGGCT
# DNA 2: AGCCGAGCTGCAGCTCGGCT
# Key:
# [1] = molecular target: T1, full-length TOP2B (Homo sapiens, UniProt Q02880); experiment: EMSA, full-length TOP2B with 5ZRF DNA oligo; type: binding; set-up: EMSA was performed by purified full-length TOP2A or TOP2B proteins; conditions: 200 µM compound, 300 nM protein, 100 nM oligo
# Protocol: (§1) (A) EMSA was performed by purified full-length TOP2A or TOP2B proteins at a contraction of 300 nM with IRDay700 labeled 5ZRF DNA oligo at a concentration of 100 nM in the presence of −/+200 µM of ICRF193, T60, T637, and T638. […] Reactions were subjected to fluorescence […], which were detected by using the Multimode Microplate Reader (Infinite F500). (D) DNA cleavage assays were performed using full-length human TOP2A and TOP2B incubated with the supercoiled pHOT plasmid in the presence of 200 µM of etoposide plus 1, 100, or 200 µM of ICRF193, T60, T637, and T638. Reactions were separated on a DNA gel with ethidium bromide. All experiments were repeated three times, and one representative image was shown. Note: N, nicked DNA; L, linear DNA; and SC, supercoiled DNA.
# [2] = in vitro; conditions: mouse, liver microsomes, pH 7.4
# Protocol: The reaction was initiated by adding NADPH, followed by incubation at 37 °C. […] The samples were then vortexed and centrifuged at 16,000 rpm for 10 min at 4 °C. The supernatants were collected and analyzed by LC/MS/MS to determine the remaining percentage and the half-life (t1/2) by integrating compound peaks and fitting the resulting AUC values and time points to a one-phase decay equation.
# [3] = molecular target: T2, full-length TOP2A (Homo sapiens, UniProt P11388); experiment: EMSA, full-length TOP2A with 5ZRF DNA oligo; type: binding; set-up: EMSA was performed by purified full-length TOP2A or TOP2B proteins; conditions: 200 µM compound, 300 nM protein, 100 nM oligo
# Protocol: as §1
# [4] = Crystal formation (precipitation) in cell cultures; type: physicochemical
# Protocol: Both T637 and T638 have improved solubility in aqueous solution and culture media compared to T60 (Figure 1). […] When cells are growing in the culture media and treated with T60 at concentrations ≥50 uM for two days, T60 will form crystals, likely due to the altered pH values by the cells that induce T60 precipitation. […] These improvements in solubility allow higher doses of compounds to be used to treat cancer cells to reach maximum tumor suppression.
# [5] = tested on: K562 cells; experiment: Cytotoxicity by LDH release; conditions: for Cytotoxicity (LDH release), in words: K562, 0-20 uM, 48 h
# Protocol: (§4) (A) K562 cells were treated with 0, 0.5, 1, 5, 10, 15, and 20 uM of T60 or 0, 0.5, 1, 5, 10, 15, 20, 50, and 100 uM of T637 and T638 for 24, 48, or 72 h. […] (B) NCI-H446 small cell lung cancer line and Hela cervical cancer line were treated with 0, 0.5, 1, 5, 10, 15, and 20 uM of T60 or 0, 0.5, 1, 5, 10, 15, 20, 50, and 100 uM of T637 and T638 for five days. Cell growth rates were measured by using Incucyte^TM. (C) K562 cells were treated with 0, 5, 10, 15, and 20 uM of T60, T637, or T638 for 48 h. Cytotoxicity was evaluated by measuring the LDH levels from the culture media. (D) K562 cells were treated with the vehicle or 10–20 µM of etoposide, T60, T637, or T638 for 4 h. Immunoblotting measured p-H2AXγ levels in cells with vinculin as a loading control.
# [6] = molecular target: T3, TOP2A (Homo sapiens, UniProt P11388); experiment: Supercoiled plasmid DNA relaxation assay, TOP2A; type: biochemical; conditions: 0.01-200 uM, three biological repeats
# Protocol: (§2) Figure 2 T637 and T638 are TOP2A inhibitors. (A) K-DNA decatenation assays and (B) supercoiled plasmid DNA relaxation assays are used to measure TOP2A enzyme activity in the presence of 0.01–200 uM T637 or T638. Three biological repeats were performed with each concentration of the compounds, and the densitometry of the D-DNA bands from (A) and the SC bands from (B) was used to establish an inhibition curve for IC50 calculation.
# [7] = tested on: salmon sperm DNA; experiment: Ethidium bromide displacement assay; type: binding; conditions: 100 µg/mL salmon sperm DNA, 2 µg/mL ethidium bromide
# Protocol: (§3) (A) Ethidium bromide displacement assays were performed by mixing 100 µg/mL salmon sperm DNA with −/+2 µg/mL ethidium bromide and the indicated compounds. Reactions were subjected to fluorescence emission of 590 nm and excitation of 535 nm. Obtained signals were detected by using the Multimode Microplate Reader (Infinite F500). […] Reactions were subjected to 5–20% LED/excitation power and medium MST power using premium capillaries. Obtained signals were detected by using the Monolith NT.115 system. The change in thermophoresis is expressed as the change in the normalized fluorescence (ΔFnorm). MST assays were repeated with two control compounds, enzalutamide (Enza) and merbarone.
# [8] = molecular target: T4, TOP2B (Homo sapiens, UniProt Q02880); experiment: Supercoiled plasmid DNA relaxation assay, TOP2B; type: biochemical; conditions: 0.01-200 uM, three biological repeats
# Protocol: as §2, with “Figure 3” for “Figure 2”, “are TOP2B” for “are TOP2A”, “measure TOP2B” for “measure TOP2A enzyme”
# [9] = molecular target: T3, TOP2A; experiment: K-DNA decatenation assay, TOP2A; type: biochemical; conditions: 0.01-200 uM, three biological repeats
# Protocol: as §2
# [10] = molecular target: T5, human TOP2A(431-1193) (Homo sapiens, UniProt P11388); experiment: Fluorescence polarization (FP) assay of TOP2A-DNA interaction; type: binding; conditions: 500 nM protein, 0.01-200 µM compound
# T5 construct: 6xHis (N); made in house; host or cells: E. coli BL21 (DE3)
# Protocol: Fluorescent polarization assay was performed in Corning® Low Volume 384-well Black Flat Bottom microplate. […] Triplicate reactions were transferred onto the microplate and incubated at room temperature for 20 min. Fluorescence polarization (FP) measurements were taken by Tecan Infinite F500 with the excitation wavelength of 485 nm and emission wavelength of 535 nm.
# as §1
# [11] = molecular target: T5, human TOP2A(431-1193); experiment: EMSA, TOP2A(431-1193) with 5ZRF DNA oligo; type: binding; conditions: 2 uM protein, 300 nM oligo
# [12] = tested on: K562 leukemia cells; experiment: K562 cell proliferation (MTS assay); conditions: for inhibition at 20 µM: Homo sapiens, read-out: Maximum cell proliferation inhibition; for Maximum cell proliferation inhibition: K562, up to 100 uM
# Protocol: as §4
# [13] = Solubility by LC/MS/MS; type: physicochemical; conditions: for solubility at 1 h: kinetic from dmso stock
# Protocol: Stock solutions of the tested compounds at 50 mM in dimethyl sulfoxide (DMSO) were diluted 50-fold in methanol (MeOH), Roswell Park Memorial Institute-1640 (RPMI1640), plus 5% charcoal-stripped serum (CSS) from Sigma-Aldrich (media) and phosphate-buffered saline (PBS), and vortexed at room temperature for 1 h at 800 rpm. The resulting solutions were centrifuged at 20,000× g for 5 min, and the saturated supernatants were diluted 40-fold in acetonitrile. The resultant solutions were subjected to LC/MS/MS to determine the solubility.
# [14] = molecular target: T4, TOP2B; experiment: K-DNA decatenation assay, TOP2B; type: biochemical; conditions: 0.01-200 uM, three biological repeats
# Protocol: as §2, with “Figure 3” for “Figure 2”, “are TOP2B” for “are TOP2A”, “measure TOP2B” for “measure TOP2A enzyme”
# [15] = molecular target: T5, human TOP2A(431-1193); experiment: Microscale thermophoresis (MST) binding assay; conditions: 5 nM NT647-labelled TOP2A(431-1193)
# Protocol: It was transformed into BL21 (DE3) E. coli cells and induced by 0.5 mM IPTG for 16 h at 16 °C. Cells were lysed by sonication and protein purification was by chromatography with the Ni-NTA beads (Invitrogen), followed by a size exclusion chromatography (Superdex 200). […] A serial dilution of the inhibitors was prepared with 100% DMSO and subsequently mixed with the labeled fluorescent protein in the assay buffer (20 mM Tris pH 8.0, 100 mM NaCl, 0.1% NP40, 0.2 mM TCEP, and 0.1 mM PMSF) at the final concentrations of 0.015–500 uM. The final concentration of the protein was 5 nM. The labeled protein and small molecules mix were allowed to incubate in the dark at room temperature for 5 min before filling the capillaries. MST assays were performed with 5–20% LED/excitation power and medium MST power using premium capillaries for Monolith NT.115. The data for the estimation of Kd were analyzed using MO Affinity Analysis software from Nanotemper.
# as §3
# [16] = molecular target: T1, full-length TOP2B; experiment: DNA cleavage assay, TOP2B; type: biochemical; set-up: DNA cleavage assays were performed using full-length human TOP2A and TOP2B; conditions: 200 µM etoposide plus 1, 100 or 200 µM compound, pHOT plasmid
# Protocol: as §1
# [17] = molecular target: T2, full-length TOP2A; experiment: DNA cleavage assay, TOP2A; type: biochemical; set-up: DNA cleavage assays were performed using full-length human TOP2A and TOP2B; conditions: 200 µM etoposide plus 1, 100 or 200 µM compound, pHOT plasmid
# Protocol: as §1
# [18] = tested on: K562 cells; experiment: Immunoblotting of p-H2AXγ (DNA damage); conditions: K562, 10-20 µM, 4 h
# Protocol: as §4
# [19] = molecular target: TOP2A(431-1193) (Homo sapiens, UniProt P11388 431-1193); experiment: fluorescence polarization; merbarone 0.01-200 uM; 3 mM Mg2+; FP: 20 mM HEPES-NaOH pH 7.4, 2 mM DTT, 3 mM MgCl2, 0.05% NP-40, protease inhibitors, room temperature 20 min; EMSA buffer not in material; conditions: protein: recombinant; tags: N-terminal 6xHis (pET28a); label: 3' 6-FAM (Results text says NT474 dye); blunt; self-complementary 20-mer, 2 copies
# [20] = RPMI1640 plus 5% charcoal-stripped serum, plasma or biological fluid, cell culture media with serum, read-out: Solubility Media/FBS
# [21] = methanol, organic solvent or mixture, methanol, read-out: Solubility Methanol
# [22] = phosphate-buffered saline, aqueous buffer, PBS, read-out: Solubility PBS
# T5 sequence (P11388 431-1193): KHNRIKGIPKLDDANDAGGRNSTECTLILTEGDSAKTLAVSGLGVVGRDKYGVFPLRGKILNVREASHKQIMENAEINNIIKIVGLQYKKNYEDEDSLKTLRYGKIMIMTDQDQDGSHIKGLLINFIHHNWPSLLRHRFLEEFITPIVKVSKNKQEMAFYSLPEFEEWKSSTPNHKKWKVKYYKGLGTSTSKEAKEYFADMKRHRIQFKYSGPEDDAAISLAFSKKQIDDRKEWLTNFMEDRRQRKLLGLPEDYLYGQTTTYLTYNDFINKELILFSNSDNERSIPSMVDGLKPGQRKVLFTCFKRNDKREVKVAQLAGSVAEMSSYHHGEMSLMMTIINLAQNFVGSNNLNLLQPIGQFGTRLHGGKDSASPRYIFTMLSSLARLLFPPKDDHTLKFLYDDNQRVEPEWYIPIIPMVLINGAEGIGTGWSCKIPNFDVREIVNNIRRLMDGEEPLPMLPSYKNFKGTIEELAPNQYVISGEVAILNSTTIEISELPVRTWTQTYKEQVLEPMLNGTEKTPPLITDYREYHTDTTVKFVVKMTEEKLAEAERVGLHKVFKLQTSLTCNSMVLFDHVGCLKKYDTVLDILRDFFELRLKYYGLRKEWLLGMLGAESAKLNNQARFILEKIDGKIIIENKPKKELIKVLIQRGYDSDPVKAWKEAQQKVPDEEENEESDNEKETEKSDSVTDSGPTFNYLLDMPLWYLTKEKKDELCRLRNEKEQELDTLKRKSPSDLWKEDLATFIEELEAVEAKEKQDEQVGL
# T1 sequence (Q02880 whole entry): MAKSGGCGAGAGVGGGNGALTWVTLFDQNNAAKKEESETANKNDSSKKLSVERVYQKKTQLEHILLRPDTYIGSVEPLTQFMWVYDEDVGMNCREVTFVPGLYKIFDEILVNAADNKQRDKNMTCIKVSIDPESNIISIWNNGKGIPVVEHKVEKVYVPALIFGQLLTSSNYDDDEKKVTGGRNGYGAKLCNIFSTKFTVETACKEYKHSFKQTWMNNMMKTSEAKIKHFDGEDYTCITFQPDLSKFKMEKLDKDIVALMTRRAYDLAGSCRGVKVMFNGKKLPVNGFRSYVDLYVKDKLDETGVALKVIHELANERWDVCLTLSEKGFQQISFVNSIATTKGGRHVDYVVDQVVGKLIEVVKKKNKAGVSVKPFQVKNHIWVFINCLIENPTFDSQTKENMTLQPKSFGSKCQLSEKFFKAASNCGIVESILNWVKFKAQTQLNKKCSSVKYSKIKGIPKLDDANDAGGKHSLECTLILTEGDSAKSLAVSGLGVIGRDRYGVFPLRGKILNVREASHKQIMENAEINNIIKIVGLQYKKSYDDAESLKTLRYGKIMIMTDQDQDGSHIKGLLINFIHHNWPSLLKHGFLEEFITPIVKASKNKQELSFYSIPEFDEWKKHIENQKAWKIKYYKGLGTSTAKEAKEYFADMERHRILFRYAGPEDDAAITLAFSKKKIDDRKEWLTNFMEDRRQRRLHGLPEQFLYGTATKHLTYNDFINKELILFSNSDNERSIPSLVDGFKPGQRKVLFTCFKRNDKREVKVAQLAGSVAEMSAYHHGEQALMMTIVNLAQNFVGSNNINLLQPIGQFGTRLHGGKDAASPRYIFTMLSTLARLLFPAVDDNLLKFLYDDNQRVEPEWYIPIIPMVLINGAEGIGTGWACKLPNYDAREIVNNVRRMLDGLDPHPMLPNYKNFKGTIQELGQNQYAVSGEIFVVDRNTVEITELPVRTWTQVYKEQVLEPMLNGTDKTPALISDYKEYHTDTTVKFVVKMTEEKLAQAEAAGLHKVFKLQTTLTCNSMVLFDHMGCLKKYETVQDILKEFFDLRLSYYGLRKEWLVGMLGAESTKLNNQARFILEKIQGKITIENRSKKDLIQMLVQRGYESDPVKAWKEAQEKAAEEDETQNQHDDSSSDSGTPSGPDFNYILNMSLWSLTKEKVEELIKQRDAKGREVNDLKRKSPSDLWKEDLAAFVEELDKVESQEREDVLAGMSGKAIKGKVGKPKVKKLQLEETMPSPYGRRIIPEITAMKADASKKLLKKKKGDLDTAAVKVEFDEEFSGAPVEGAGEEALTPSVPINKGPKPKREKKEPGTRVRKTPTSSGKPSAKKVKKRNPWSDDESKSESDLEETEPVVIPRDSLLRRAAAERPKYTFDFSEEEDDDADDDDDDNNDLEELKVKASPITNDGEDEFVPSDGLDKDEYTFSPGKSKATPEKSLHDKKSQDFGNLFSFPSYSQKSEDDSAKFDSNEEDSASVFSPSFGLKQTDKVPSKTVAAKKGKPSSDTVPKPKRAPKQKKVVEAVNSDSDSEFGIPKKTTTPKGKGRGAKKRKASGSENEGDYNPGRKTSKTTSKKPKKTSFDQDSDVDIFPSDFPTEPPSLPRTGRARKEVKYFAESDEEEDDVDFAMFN
# T4 sequence (Q02880 whole entry): as above
# T2 sequence (P11388 whole entry): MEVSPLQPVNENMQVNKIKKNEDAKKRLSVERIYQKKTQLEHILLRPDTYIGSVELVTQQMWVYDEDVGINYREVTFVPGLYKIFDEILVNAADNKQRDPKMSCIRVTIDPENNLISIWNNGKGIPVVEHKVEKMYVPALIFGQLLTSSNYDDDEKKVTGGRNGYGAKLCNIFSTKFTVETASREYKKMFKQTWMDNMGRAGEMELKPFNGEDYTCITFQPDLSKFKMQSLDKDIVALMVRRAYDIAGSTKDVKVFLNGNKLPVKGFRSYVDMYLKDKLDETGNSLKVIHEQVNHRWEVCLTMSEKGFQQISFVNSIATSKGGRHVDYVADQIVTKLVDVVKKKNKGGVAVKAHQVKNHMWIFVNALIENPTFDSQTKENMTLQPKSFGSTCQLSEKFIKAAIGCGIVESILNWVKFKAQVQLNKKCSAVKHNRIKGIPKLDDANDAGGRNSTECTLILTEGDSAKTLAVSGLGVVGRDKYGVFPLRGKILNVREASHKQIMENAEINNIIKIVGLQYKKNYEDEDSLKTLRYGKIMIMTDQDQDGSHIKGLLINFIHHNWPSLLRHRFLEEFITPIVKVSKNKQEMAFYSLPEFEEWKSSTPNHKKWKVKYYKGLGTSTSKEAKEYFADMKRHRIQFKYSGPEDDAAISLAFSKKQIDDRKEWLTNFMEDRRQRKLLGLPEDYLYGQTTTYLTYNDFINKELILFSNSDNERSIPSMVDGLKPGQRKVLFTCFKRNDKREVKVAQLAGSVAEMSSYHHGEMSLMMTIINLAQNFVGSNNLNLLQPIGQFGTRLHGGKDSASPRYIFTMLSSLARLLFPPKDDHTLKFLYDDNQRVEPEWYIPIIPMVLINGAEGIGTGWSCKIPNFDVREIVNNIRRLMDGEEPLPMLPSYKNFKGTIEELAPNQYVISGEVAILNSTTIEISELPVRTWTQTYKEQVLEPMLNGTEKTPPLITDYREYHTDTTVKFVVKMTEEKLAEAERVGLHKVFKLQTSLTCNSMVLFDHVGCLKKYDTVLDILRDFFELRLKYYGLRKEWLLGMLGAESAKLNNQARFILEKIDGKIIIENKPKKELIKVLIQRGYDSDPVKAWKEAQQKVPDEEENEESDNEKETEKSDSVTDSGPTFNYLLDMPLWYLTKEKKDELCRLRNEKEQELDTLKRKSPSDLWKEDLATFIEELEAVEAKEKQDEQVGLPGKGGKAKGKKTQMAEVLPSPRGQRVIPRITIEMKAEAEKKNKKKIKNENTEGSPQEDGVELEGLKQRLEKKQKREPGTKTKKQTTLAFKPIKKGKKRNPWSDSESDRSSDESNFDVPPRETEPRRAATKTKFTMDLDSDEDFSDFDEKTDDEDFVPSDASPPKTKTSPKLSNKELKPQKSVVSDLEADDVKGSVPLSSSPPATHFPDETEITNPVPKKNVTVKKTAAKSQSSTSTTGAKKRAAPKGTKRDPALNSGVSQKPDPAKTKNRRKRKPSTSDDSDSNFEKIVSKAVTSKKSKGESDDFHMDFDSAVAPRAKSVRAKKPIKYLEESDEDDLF
# T3 sequence (P11388 whole entry): as above
# TOP2A(431-1193), sequence (P11388 431-1193): as the sequence (P11388 431-1193) above
molecule,measurement,setting,value
O=C(Nc1ccc(Nc2ccccc2)cc1)c1ccc[nH]c1=S [T60],Block of TOP2B-DNA oligo complex formation (EMSA),[1],block
same,half-life at 1 uM,[2],51 min
same,microsomal CLint at 1 uM,[2],46 µL/min/mg
same,Block of TOP2A-DNA oligo complex formation (EMSA),[3],block
same,Concentration at which the compound forms crystals in culture media with growing cells,[4]; cells treated for two days,≥ 50 µM
same,"Cytotoxicity (LDH release), in words",[5],not observed
same,IC50,[6],4.7 µM
same,Fluorescence induced by the ethidium bromide/DNA complex reduced by increasing doses (DNA intercalation),[7],not
same,IC50,[8],~8.9 µM
same,IC50,[9],~0.3 µM
same,Effect on TOP2A-DNA interaction (FP),[10],reduced the TOP2A–DNA interaction in a dose-dependent manner
same,Inhibition of TOP2A(431-1193)-DNA interaction (EMSA),[11],inhibited TOP2A–DNA interaction dose-dependently
same,inhibition at 20 µM,"[12]; K562, 24 h",~38%
same,inhibition at 20 µM,"[12]; K562, 48 h",71%
same,inhibition at 20 µM,"[12]; K562, 72 h",86%
same,solubility at 1 h,[13]; [20],206 µM
same,Solubility Media/FBS,[13]; cell culture media with serum,~ 200 uM
same,solubility at 1 h,[13]; [21],> 1000 µM
same,solubility at 1 h,[13]; [22],5.8 µM
same,IC50,[14],~3.1 µM
"COc1cc(NS(C)(=O)=O)ccc1Nc1c2ccccc2nc2ccccc12 [m-AMSA, amsacrine, reference compound]",Fluorescence induced by the ethidium bromide/DNA complex reduced by increasing doses (DNA intercalation),[7],reduced
"O=C1NC(=S)NC(=O)C1C(=O)Nc1ccccc1 [merbarone, reference compound]","Binding to TOP2A(431-1193) by MST (change of thermophoresis), in words",[15],no interaction
same,Effect on TOP2A-DNA interaction (FP),[10],did not affect TOP2A–DNA interaction
same,Inhibition of TOP2A(431-1193)-DNA interaction (EMSA),[11],did not affect the formation of the TOP2–DNA complex
ICRF193 [reference compound],"Prevention of etoposide-induced DNA cleavage, TOP2B",[16],did not prevent etoposide-induced DNA cleavage
same,"Prevention of etoposide-induced DNA cleavage, TOP2A",[17],did not prevent etoposide-induced DNA cleavage
same,Block of TOP2A-DNA oligo complex formation (EMSA),[3],not
CC(=O)Nc1cc(Nc2ccccc2)ccc1NC(=O)c1ccc[nH]c1=S [T637],Block of TOP2B-DNA oligo complex formation (EMSA),[1],block
same,"Prevention of etoposide-induced DNA cleavage, TOP2B",[16],did prevent etoposide-induced DNA cleavage
same,half-life at 1 uM,[2],20 min
same,microsomal CLint at 1 uM,[2],116 µL/min/mg
same,"Prevention of etoposide-induced DNA cleavage, TOP2A",[17],did prevent etoposide-induced DNA cleavage
same,Block of TOP2A-DNA oligo complex formation (EMSA),[3],block
same,"Crystal formation in cell cultures, in words",[4]; up to 100 uM,no crystal formation
same,"Cytotoxicity (LDH release), in words",[5],not observed
same,IC50,[6],16.8 µM
same,Fluorescence induced by the ethidium bromide/DNA complex reduced by increasing doses (DNA intercalation),[7],not
same,IC50,[8],~18.6 µM
same,IC50,[9],~1.4 µM
same,Effect on TOP2A-DNA interaction (FP),[10],reduced the TOP2A–DNA interaction in a dose-dependent manner
same,Inhibition of TOP2A(431-1193)-DNA interaction (EMSA),[11],inhibited TOP2A–DNA interaction dose-dependently
same,Intracellular DNA damage (phospho-H2AXγ protein levels),[18],do not cause intracellular DNA damage
same,Maximum cell proliferation inhibition,[12]; 48 h,100%
same,Maximum cell proliferation inhibition,[12]; 72 h,100%
same,solubility at 1 h,[13]; [20],707 µM
same,solubility at 1 h,[13]; [21],> 1000 µM
same,solubility at 1 h,[13]; [22],20 µM
same,IC50,[14],~8.9 µM
CNC(=O)c1ccc(N2C(=S)N(c3ccc(C#N)c(C(F)(F)F)c3)C(=O)C2(C)C)cc1F [enzalutamide],"Binding to TOP2A(431-1193) by MST (change of thermophoresis), in words",[15],no alteration of thermophoresis
"COc1cc([C@@H]2c3cc4c(cc3[C@@H](O[C@@H]3O[C@@H]5CO[C@@H](C)O[C@H]5[C@H](O)[C@H]3O)[C@H]3COC(=O)[C@H]23)OCO4)cc(OC)c1O [etoposide, reference compound]",Cytotoxicity (LDH release),"[5]; K562, 20 uM, two days",up to 70%
B1,binding result,[19],binds
